Experimental data published in patent publication US7368578B2, “Five-membered heterocyclic compounds” (Takeda Pharmaceutical Company Limited, priority 2002, dated 2008).

SMILES | melting point
Cc1oc(-c2ccco2)nc1COc1ccc(COc2nn(Cc3ccccc3)cc2C=O)cc1OCc1ccccc1 [Example 50, 1-benzyl-3-[(3-benzyloxy-4-{[2-(2-furyl)-5-methyl-1,3-oxazol-4-yl]methoxy}benzyl)oxy]-1H-pyrazole-4-carbaldehyde] | 130 to 131 °C
Cc1oc(-c2ccco2)nc1COc1ccc(COc2nn(Cc3ccccc3)cc2C(=O)O)cc1-c1ccccc1 [Example 57, 1-benzyl-3-[(4-{[2-(2-furyl)-5-methyl-1,3-oxazol-4-yl]methoxy}-3-phenylbenzyl)oxy]-1H-pyrazole-4-carboxylic acid] | 181 to 182 °C
Cc1oc(-c2ccco2)nc1COc1ccc(COc2nn(-c3ccccc3)cc2C#N)cc1 [Example 89, 3-[(4-{[2-(2-furyl)-5-methyl-1,3-oxazol-4-yl]methoxy}benzyl)oxy]-1-phenyl-1H-pyrazole-4-carbonitrile] | 158 to 159 °C
COc1cc(COc2nn(-c3ccccc3)cc2/C=C\[S+](C)[O-])ccc1OCc1nc(-c2ccco2)oc1C (stereo not drawn) [Example 128 (Z form), 2-(2-furyl)-4-({2-methoxy-4-[({4-[(Z)-2-(methylsulfinyl)ethenyl]-1-phenyl-1H-pyrazol-3-yl}oxy)methyl]phenoxy}methyl)-5-methyl-1,3-oxazole] | 180 to 181 °C
COc1cc(COc2nn(C)cc2C(N)=O)ccc1OCc1nc(-c2ccccc2)oc1C [Example 268, 3-{[3-methoxy-4-(5-methyl-2-phenyl-1,3-oxazol-4-ylmethoxy)benzyl]oxy}-1-methyl-1H-pyrazole-4-carboxamide] | 168 to 169 °C
CCCC(=O)/C=C/c1cn(-c2ccccc2)nc1OCc1ccc(OCc2nc(-c3ccco3)oc2C)c(OC)c1 [Example 157, (1E)-1-{3-[(4-{[2-(2-furyl)-5-methyl-1,3-oxazol-4-yl]methoxy}-3-methoxybenzyl)oxy]-1-phenyl-1H-pyrazol-4-yl}-1-hexen-3-one] | 167 to 168 °C
COc1cc(COc2nn(Cc3ccccc3)cc2C(N)=O)ccc1OCc1nc(-c2ccco2)oc1C [Example 14, 1-benzyl-3-[(4-{[2-(2-furyl)-5-methyl-1,3-oxazol-4-yl]methoxy}-3-methoxybenzyl)oxy]-1H-pyrazole-4-carboxamide] | 160 to 161 °C
COC(=O)c1ccccc1-c1nc(COc2ccc(COc3nn(-c4ccccc4)cc3C=O)cc2OC)c(C)o1 [Example 207, methyl 2-{4-[(4-{[(4-formyl-1-phenyl-1H-pyrazol-3-yl)oxy]methyl}-2-methoxyphenoxy)methyl]-5-methyl-1,3-oxazol-2-yl}benzoate] | 134 to 135 °C
COc1cc(COc2cc(C#N)n(-c3ccccc3)n2)ccc1OCc1nc(-c2ccccc2)oc1C [Example 298, 3-{[3-methoxy-4-(5-methyl-2-phenyl-1,3-oxazol-4-ylmethoxy)benzyl]oxy}-1-phenyl-1H-pyrazole-5-carbonitrile] | 120 to 121 °C
Cc1oc(-c2ccco2)nc1COc1ccc(COc2nn(Cc3ccccc3)cc2C(N)=O)cc1 [Example 8, 1-benzyl-3-[(4{[2-(2-furyl)-5-methyl-1,3-oxazol-4-yl]methoxy}benzyl)oxy]-1H-pyrazole-4-carboxamide] | 139 to 140 °C
COc1cc(COc2nn(-c3ccccc3)cc2C(=O)O)ccc1OCc1nc(-c2ccccc2)oc1C [Example 273, 3-{[3-methoxy-4-(5-methyl-2-phenyl-1,3-oxazol-4-ylmethoxy)benzyl]oxy}-1-phenyl-1H-pyrazole-4-carboxylic acid] | 209 to 210 °C
CCOC(=O)Cc1ccc(-c2nc(COc3ccc(COc4nn(-c5ccccc5)cc4/C=C/c4nc(N5CCN(C(=O)OC(C)(C)C)CC5)sc4C)cc3OC)c(C)o2)cc1 [Example 380, tert-butyl 4-{4-[(E)-2-(3-{[4-({2-[4-(2-ethoxy-2-oxoethyl)phenyl]-5-methyl-1,3-oxazol-4-yl}methoxy)-3-methoxybenzyl]oxy}-1-phenyl-1H-pyrazol-4-yl)ethenyl]-5-methyl-1,3-thiazol-2-yl}piperazine-1-carboxylate] | 112 to 114 °C
